Laboratory results reported in ChEMBL document CHEMBL1146198, “In vitro studies with DQ-113 and comparison fluoroquinolones to determine propensities to select resistance in gram-positive cocci” (2007).
In brackets after ≈: the same amount, converted by molar mass.

What was measured:
Format in all cases: functional
Streptococcus pneumoniae [1] = experiment: Effect on 0.03 ug/ml DQ113-selected penicillin-resistant Streptococcus pneumoniae 216 mutant after five passages assessed as susceptibility by agar dilution method
Streptococcus pneumoniae [2] = experiment: Susceptibility of penicillin-resistant Streptococcus pneumoniae 217 by agar dilution method
Streptococcus pneumoniae [3] = experiment: Effect on 16 ug/ml levofloxacin-selected penicillin-resistant Streptococcus pneumoniae 218 mutant after five passages assessed as susceptibility by agar dilution method
Streptococcus pneumoniae [4] = experiment: Effect on 16 ug/ml levofloxacin-selected penicillin-resistant Streptococcus pneumoniae 335 mutant after five passages assessed as susceptibility by agar dilution method
Streptococcus pneumoniae [5] = experiment: Effect on 2 ug/ml moxifloxacin-selected penicillin-resistant Streptococcus pneumoniae 216 mutant after five passages assessed as susceptibility by agar dilution method
Streptococcus pneumoniae [6] = experiment: Effect on 2 ug/ml moxifloxacin-selected penicillin-resistant Streptococcus pneumoniae 218 mutant after five passages assessed as susceptibility by agar dilution method
Streptococcus pneumoniae [7] = experiment: Effect on 0.5 ug/ml sitafloxacin-selected penicillin-resistant Streptococcus pneumoniae 218 mutant after five passages assessed as susceptibility by agar dilution method
Streptococcus pneumoniae [8] = experiment: Effect on 32 ug/ml ciprofloxacin-selected penicillin-resistant Streptococcus pneumoniae 334 mutant after five passages assessed as susceptibility by agar dilution method
Streptococcus pneumoniae [9] = experiment: Effect on 16 ug/ml ciprofloxacin-selected penicillin-resistant Streptococcus pneumoniae 335 mutant after five passages assessed as susceptibility by agar dilution method
Streptococcus pneumoniae [10] = experiment: Effect on 0.5 ug/ml moxifloxacin-selected penicillin-resistant Streptococcus pneumoniae 216 mutant after five passages assessed as susceptibility by agar dilution method
Streptococcus pneumoniae [11] = experiment: Effect on 0.06 ug/ml DQ113-selected penicillin-resistant Streptococcus pneumoniae 335 mutant after five passages assessed as susceptibility by agar dilution method
Streptococcus pneumoniae [12] = experiment: Susceptibility of penicillin-resistant Streptococcus pneumoniae 216 by agar dilution method
Streptococcus pneumoniae [13] = experiment: Effect on 0.5 ug/ml […]-selected penicillin-resistant Streptococcus pneumoniae 335 mutant after five passages assessed as susceptibility by agar dilution method
Staphylococcus aureus = experiment: Susceptibility of methicillin-sensitive/resistant Staphylococcus aureus single-step mutant by agar dilution method
Streptococcus pneumoniae [14] = experiment: Effect on 0.06 ug/ml DQ113-selected penicillin-resistant Streptococcus pneumoniae 216 mutant after five passages assessed as susceptibility by agar dilution method
Streptococcus pneumoniae [15] = experiment: (§1) Effect on 0.5 ug/ml sitafloxacin-selected penicillin-resistant Streptococcus pneumoniae 216 mutant after five passages assessed as susceptibility by agar dilution method
Streptococcus pneumoniae [16] = experiment: Effect on 32 ug/ml ciprofloxacin-selected penicillin-resistant Streptococcus pneumoniae 216 mutant after five passages assessed as susceptibility by agar dilution method
Streptococcus pneumoniae [17] = experiment: Effect on 1 ug/ml moxifloxacin-selected penicillin-resistant Streptococcus pneumoniae 335 mutant after five passages assessed as susceptibility by agar dilution method
Streptococcus pneumoniae [18] = experiment: Susceptibility of penicillin-resistant Streptococcus pneumoniae 334 by agar dilution method
Streptococcus pneumoniae [19] = experiment: Susceptibility of penicillin-resistant Streptococcus pneumoniae 335 by agar dilution method
Streptococcus pneumoniae [20] = experiment: (§2) Effect on 4 ug/ml levofloxacin-selected penicillin-resistant Streptococcus pneumoniae 216 mutant after five passages assessed as susceptibility by agar dilution method
Streptococcus pneumoniae [21] = experiment: as §2; remark: listed apart in the source
Streptococcus pneumoniae [22] = experiment: as §1; remark: listed apart in the source
Streptococcus pneumoniae [23] = experiment: Susceptibility of penicillin-resistant Streptococcus pneumoniae 218 by agar dilution method
Streptococcus pneumoniae [24] = experiment: Effect on 1 ug/ml moxifloxacin-selected penicillin-resistant Streptococcus pneumoniae 334 mutant after five passages assessed as susceptibility by agar dilution method
Streptococcus pneumoniae [25] = experiment: Effect on 16 ug/ml ciprofloxacin-selected penicillin-resistant Streptococcus pneumoniae 218 mutant after five passages assessed as susceptibility by agar dilution method
Streptococcus pneumoniae [26] = experiment: Effect on 0.5 ug/ml sitafloxacin-selected penicillin-resistant Streptococcus pneumoniae 334 mutant after five passages assessed as susceptibility by agar dilution method
Streptococcus pneumoniae [27] = experiment: Effect on 4 ug/ml levofloxacin-selected penicillin-resistant Streptococcus pneumoniae 334 mutant after five passages assessed as susceptibility by agar dilution method
Streptococcus pneumoniae [28] = experiment: Effect on 0.06 ug/ml DQ113-selected penicillin-resistant Streptococcus pneumoniae 334 mutant after five passages assessed as susceptibility by agar dilution method
Enterococcus [29] = experiment: Susceptibility of drug-selected vancomycin-resistant Enterococcus species mutant by agar dilution method
Enterococcus [30] = experiment: Susceptibility of vancomycin-resistant Enterococcus species single-step mutant by agar dilution method
Streptococcus pneumoniae [31] = experiment: Effect on 0.06 ug/ml DQ113-selected penicillin-resistant Streptococcus pneumoniae 218 mutant after five passages assessed as susceptibility by agar dilution method
Streptococcus pneumoniae [32] = experiment: Effect on 8 ug/ml ciprofloxacin-selected penicillin-resistant Streptococcus pneumoniae 216 mutant after five passages assessed as susceptibility by agar dilution method

Row | SMILES | MIC (Streptococcus pneumoniae [1]) | MIC (Streptococcus pneumoniae [2]) | MIC (Streptococcus pneumoniae [3]) | MIC (Streptococcus pneumoniae [4]) | MIC (Streptococcus pneumoniae [5]) | MIC (Streptococcus pneumoniae [6]) | MIC (Streptococcus pneumoniae [7]) | MIC (Streptococcus pneumoniae [8]) | MIC (Streptococcus pneumoniae [9]) | MIC (Streptococcus pneumoniae [10]) | MIC (Streptococcus pneumoniae [11]) | MIC (Streptococcus pneumoniae [13]) | MIC (Staphylococcus aureus) | MIC (Streptococcus pneumoniae [14]) | MIC (Streptococcus pneumoniae [15]) | MIC (Streptococcus pneumoniae [16]) | MIC (Streptococcus pneumoniae [17]) | MIC (Streptococcus pneumoniae [18]) | MIC (Streptococcus pneumoniae [19]) | MIC (Enterococcus [30]) | also measured
1 | Cc1c(N2C[C@@H](F)[C@@H](C3(N)CC3)C2)c(F)c(N)c2c(=O)c(C(=O)O)cn([C@@H]3C[C@@H]3F)c12 [DQ-113] | 0.007 µg/mL (≈ 0.016 µM) | 0.004 µg/mL (≈ 0.00917 µM) | 0.015 µg/mL | 0.12 µg/mL | 0.12 µg/mL | 0.03 µg/mL | 0.015 µg/mL | 0.03 µg/mL | 0.007 µg/mL | 0.015 µg/mL | 0.015 µg/mL (≈ 0.0344 µM) | 0.03 µg/mL | 0.03 µg/mL (≈ 0.0687 µM) | 0.06 µg/mL (≈ 0.137 µM) | 0.03 µg/mL | 0.015 µg/mL | 0.03 µg/mL | 0.004 µg/mL (≈ 0.00917 µM) | 0.002 µg/mL (≈ 0.00458 µM) | 2 µg/mL (≈ 4.58 µM) | MIC (Streptococcus pneumoniae [12]): 0.001 µg/mL (≈ 0.00229 µM); MIC (Streptococcus pneumoniae [20]): 0.007 µg/mL; MIC (Streptococcus pneumoniae [21]): 0.002 µg/mL; MIC (Streptococcus pneumoniae [22]): 0.03 µg/mL; MIC (Streptococcus pneumoniae [23]): 0.004 µg/mL (≈ 0.00917 µM); MIC (Streptococcus pneumoniae [24]): 0.015 µg/mL; MIC (Streptococcus pneumoniae [25]): 0.06 µg/mL; MIC (Streptococcus pneumoniae [26]): 0.06 µg/mL; MIC (Streptococcus pneumoniae [27]): 0.03 µg/mL; MIC (Streptococcus pneumoniae [28]): 0.06 µg/mL (≈ 0.137 µM); MIC (Enterococcus [29]; read-out: MIC): 8 µg/mL (≈ 18.3 µM); MIC (Streptococcus pneumoniae [31]): 0.03 µg/mL (≈ 0.0687 µM); MIC (Streptococcus pneumoniae [32]): 0.015 µg/mL
2 | C[C@H]1COc2c(N3CCN(C)CC3)c(F)cc3c(=O)c(C(=O)O)cn1c23.C[C@H]1COc2c(N3CCN(C)CC3)c(F)cc3c(=O)c(C(=O)O)cn1c23.O [LEVOFLOXACIN] |  |  |  | 64 µg/mL | 64 µg/mL |  |  |  |  |  |  |  | 2 µg/mL |  |  |  |  |  |  | 16 µg/mL | MIC (Enterococcus [29]; read-out: MIC): 256 µg/mL
3 | N[C@@H]1CN(c2c(F)cc3c(=O)c(C(=O)O)cn(C4C[C@@H]4F)c3c2Cl)CC12CC2 (single isomer, unassigned) [SITAFLOXACIN ANHYDROUS] | 0.25 µg/mL (≈ 0.61 µM) | 0.12 µg/mL (≈ 0.293 µM) | 0.5 µg/mL | 4 µg/mL | 4 µg/mL | 1 µg/mL | 1 µg/mL | 0.5 µg/mL | 0.5 µg/mL | 0.5 µg/mL | 0.5 µg/mL (≈ 1.22 µM) | 2 µg/mL | 0.25 µg/mL (≈ 0.61 µM) | 0.5 µg/mL (≈ 1.22 µM) | 1 µg/mL | 1 µg/mL | 0.5 µg/mL | 0.06 µg/mL (≈ 0.146 µM) | 0.12 µg/mL (≈ 0.293 µM) | 4 µg/mL (≈ 9.76 µM) | MIC (Streptococcus pneumoniae [12]): 0.06 µg/mL (≈ 0.146 µM); MIC (Streptococcus pneumoniae [20]): 0.5 µg/mL; MIC (Streptococcus pneumoniae [21]): 0.12 µg/mL; MIC (Streptococcus pneumoniae [22]): 2 µg/mL; MIC (Streptococcus pneumoniae [23]): 0.12 µg/mL (≈ 0.293 µM); MIC (Streptococcus pneumoniae [24]): 0.12 µg/mL; MIC (Streptococcus pneumoniae [25]): 2 µg/mL; MIC (Streptococcus pneumoniae [26]): 0.5 µg/mL; MIC (Streptococcus pneumoniae [27]): 0.5 µg/mL; MIC (Streptococcus pneumoniae [28]): 0.5 µg/mL (≈ 1.22 µM); MIC (Enterococcus [29]; read-out: MIC): 8 µg/mL (≈ 19.5 µM); MIC (Streptococcus pneumoniae [31]): 1 µg/mL (≈ 2.44 µM); MIC (Streptococcus pneumoniae [32]): 0.5 µg/mL
4 | COc1c(N2C[C@@H]3CCCN[C@@H]3C2)c(F)cc2c(=O)c(C(=O)O)cn(C3CC3)c12 [MOXIFLOXACIN] | 0.25 µg/mL (≈ 0.623 µM) | 0.25 µg/mL (≈ 0.623 µM) | 1 µg/mL | 8 µg/mL | 8 µg/mL | 4 µg/mL | 1 µg/mL | 1 µg/mL | 0.5 µg/mL | 1 µg/mL | 1 µg/mL (≈ 2.49 µM) | 1 µg/mL | 0.5 µg/mL (≈ 1.25 µM) | 2 µg/mL (≈ 4.98 µM) | 2 µg/mL | 0.5 µg/mL | 2 µg/mL | 0.12 µg/mL (≈ 0.299 µM) | 0.12 µg/mL (≈ 0.299 µM) | 8 µg/mL (≈ 19.9 µM) | MIC (Streptococcus pneumoniae [12]): 0.06 µg/mL (≈ 0.149 µM); MIC (Streptococcus pneumoniae [20]): 0.25 µg/mL; MIC (Streptococcus pneumoniae [21]): 0.25 µg/mL; MIC (Streptococcus pneumoniae [22]): 2 µg/mL; MIC (Streptococcus pneumoniae [23]): 0.12 µg/mL (≈ 0.299 µM); MIC (Streptococcus pneumoniae [24]): 0.5 µg/mL; MIC (Streptococcus pneumoniae [25]): 4 µg/mL; MIC (Streptococcus pneumoniae [26]): 4 µg/mL; MIC (Streptococcus pneumoniae [27]): 2 µg/mL; MIC (Streptococcus pneumoniae [28]): 2 µg/mL (≈ 4.98 µM); MIC (Enterococcus [29]): 64 µg/mL (≈ 159 µM); MIC (Streptococcus pneumoniae [31]): 1 µg/mL (≈ 2.49 µM); MIC (Streptococcus pneumoniae [32]): 2 µg/mL
5 | O=C(O)c1cn(C2CC2)c2cc(N3CCNCC3)c(F)cc2c1=O [CIPROFLOXACIN] | 4 µg/mL (≈ 12.1 µM) | 1 µg/mL (≈ 3.02 µM) | 8 µg/mL | 128 µg/mL | 128 µg/mL | 128 µg/mL | 16 µg/mL | 32 µg/mL | 16 µg/mL | 4 µg/mL | 4 µg/mL (≈ 12.1 µM) | 16 µg/mL |  | 16 µg/mL (≈ 48.3 µM) | 32 µg/mL | 32 µg/mL | 4 µg/mL | 1 µg/mL (≈ 3.02 µM) | 1 µg/mL (≈ 3.02 µM) | 16 µg/mL (≈ 48.3 µM) | MIC (Streptococcus pneumoniae [20]): 16 µg/mL; MIC (Streptococcus pneumoniae [21]): 4 µg/mL; MIC (Streptococcus pneumoniae [22]): 32 µg/mL; MIC (Streptococcus pneumoniae [23]): 1 µg/mL (≈ 3.02 µM); MIC (Streptococcus pneumoniae [24]): 8 µg/mL; MIC (Streptococcus pneumoniae [25]): 128 µg/mL; MIC (Streptococcus pneumoniae [26]): 64 µg/mL; MIC (Streptococcus pneumoniae [27]): 32 µg/mL; MIC (Streptococcus pneumoniae [28]): 8 µg/mL (≈ 24.1 µM); MIC (Streptococcus pneumoniae [31]): 8 µg/mL (≈ 24.1 µM); MIC (Streptococcus pneumoniae [32]): 32 µg/mL
